Results reported in patent US20240391965A1, “STAPLED ANTIMICROBIAL PEPTIDES (STAMPS) AND USES THEREOF” (Lytica Therapeutics, Inc., priority 2021, published 2024).
In brackets after ≈: the same amount, converted by molar mass. Starred links: 1 amine or outer side, 2 acyl side, 3 side chain; linkers in the order of their positions; H or OH if unused. Positions of bridges follow the written chain, without caps; N, C: chain ends. Residues, ends and D or L forms follow the SMILES beside them. Biphenyl(4,4'-CH2)2 = c1cc(-c2ccc(C[*:2])cc2)ccc1C[*:1]; mXylylene = c1cc(C[*:1])cc(C[*:2])c1; pXylylene = c1cc(C[*:2])ccc1C[*:1]; X1 = C(=CC[*:2])C[*:1]

Legend:
[1] = 48 hours cytotoxicity assay (CellTiter-Glo), liver toxicity; type: cell-based, human
Source text: (§1) In some embodiments, a peptide provided herein has hepatic toxicity that is at least 10% (e.g., at least 15%, at least 20%, at least 25%, at least 30%, at least 35%, at least 40%, at least 45%, at least 50%, at least 55%, at least 60%, at least 65%, at least 65%, at least 70%, at least 75%, at least 80%, at least 85%, at least 90%, at least 95%, at least 99%) lower than the hepatic toxicity of the reference. The hepatic toxicity of a peptide can be measured in vitro using a human liver cells (e.g., HepG2) toxicity assay.
(§2) Cell culture: RPTEC were maintained in MEM media supplemented with growth factors. HEPG2 cell line was maintained in Eagle's Minimum Essential Medium (EMEM) supplemented with fetal bovine serum to a final concentration of 10%.
48 hours cytotoxicity assay: Cells were plated in a 96-well format, and after 4 hour incubation to allow attachment, serial dilutions of StAMPs from a 5 mg/mL water stock, or vehicle, were then added to the cells in a final volume of 100 μl. After incubating at 37° C. for 48 hours, 100 μl of CellTiter-Glo® reagent was added to the cells, and the plates were incubated 10 minutes at room temperature. Luminescence was then measured on a microplate reader.
(§3) Renal toxicity was measured after 90 minutes of incubation, while liver toxicity was measured after 48 hours of incubation with StAMPs. N/A=not tested.

[2] = 90 minute cytotoxicity assay (LDH release), renal toxicity; type: cell-based
Source text: as §1, with “renal” for “hepatic”, “renal proximal tubule epithelial cell (RPTEC) renal” for “human liver cells (e.g., HepG2)”
as §2
90 minute cytotoxicity assay: Cells were plated in a 96-well format, and after overnight incubation, media was replaced with fresh media. Serial dilutions of StAMPs from a 5 mg/mL water stock, or vehicle, were added to the cells in a final volume of 100 μl. After incubating at 37° C. for 90 min, 50 μl of cell culture media was transferred to a clear 96-well plate, incubated with 50 μl of lactate dehydrogenase (LDH) assay reagent for 10 min, and absorbance measured at 490 nm on a microplate reader.
as §3

CC[C@H](C)[C@H](NC(=O)[C@H](CC(C)C)NC(=O)[C@H](CC(C)C)NC(=O)[C@H](CC(N)=O)NC(=O)[C@H](CCCCN)NC(=O)[C@@H](NC(=O)[C@H](CCCCN)NC(=O)[C@H](CCCCN)NC(=O)CNC(=O)[C@H](C)NC(=O)[C@H](CC(C)C)NC(=O)[C@@H]1CSCc2cccc(c2)CSC[C@H](N)C(=O)N[C@@H]([C@@H](C)CC)C(=O)N[C@@H](Cc2ccccc2)C(=O)N[C@@H](CO)C(=O)N1)[C@@H](C)CC)C(=O)N[C@@H](CO)C(=O)NCC(=O)N[C@@H](CC(C)C)C(=O)N[C@@H](CCCCN)C(=O)NCC(N)=O [compound 36] (H-CIFSCLAGKKIKNLLISGLKG-NH2; linker 1-5 via mXylylene; N-terminus assumed)
IC50 [1]: 75 µg/mL (≈ 32.5 µM)
IC50 [2]: ~200 µg/mL (≈ 86.7 µM)

CC[C@H](C)[C@H](NC(=O)CN)C(=O)N[C@@H](Cc1ccccc1)C(=O)N[C@@H](CO)C(=O)N[C@@H](CCCCN)C(=O)N[C@@H](CC(C)C)C(=O)N[C@@H](C)C(=O)NCC(=O)N[C@@H](CCCCN)C(=O)N[C@@H](CCCCN)C(=O)N[C@H](C(=O)N[C@@H](CCCCN)C(=O)N[C@@H](CC(N)=O)C(=O)N[C@H]1CSCc2ccc(cc2)CSC[C@@H](C(=O)N[C@@H](CC(C)C)C(=O)N[C@@H](CCCCN)C(=O)NCC(N)=O)NC(=O)[C@H](CO)NC(=O)[C@H]([C@@H](C)CC)NC(=O)[C@H](CC(C)C)NC1=O)[C@@H](C)CC [compound 27] (H-GIFSKLAGKKIKNCLISCLKG-NH2; linker 14-18 via pXylylene; N-terminus assumed)
IC50 [1]: > 200 µg/mL
IC50 [2]: > 200 µg/mL

CC[C@H](C)[C@H](NC(=O)CN)C(=O)N[C@H]1CSCc2ccc(cc2)-c2ccc(cc2)CSC[C@@H](C(=O)N[C@H](C(=O)N[C@@H](CCCCN)C(=O)N[C@@H](CC(N)=O)C(=O)N[C@@H](CC(C)C)C(=O)N[C@@H](CC(C)C)C(=O)N[C@H](C(=O)N[C@@H](CO)C(=O)NCC(=O)N[C@@H](CC(C)C)C(=O)N[C@@H](CCCCN)C(=O)NCC(N)=O)[C@@H](C)CC)[C@@H](C)CC)NC(=O)[C@H](CCCCN)NC(=O)CNC(=O)[C@H](C)NC(=O)[C@H](CC(C)C)NC(=O)[C@H](CCCCN)NC(=O)[C@H](CO)NC1=O [compound 56] (H-GICSKLAGKCIKNLLISGLKG-NH2; linker 3-10 via Biphenyl(4,4'-CH2)2; N-terminus assumed)
IC50 [1]: 34 µg/mL (≈ 14.8 µM)
IC50 [2]: 17 µg/mL (≈ 7.41 µM)

CC[C@H](C)[C@H](NC(=O)CN)C(=O)N[C@@H](Cc1ccccc1)C(=O)N[C@@H](CO)C(=O)N[C@@H](CCCCN)C(=O)N[C@@H](CC(C)C)C(=O)N[C@@H](C)C(=O)NCC(=O)N[C@H]1CSCC=CCSC[C@@H](C(=O)N[C@@H](CC(C)C)C(=O)N[C@@H](CC(C)C)C(=O)N[C@H](C(=O)N[C@@H](CO)C(=O)NCC(=O)N[C@@H](CC(C)C)C(=O)N[C@@H](CCCCN)C(=O)NCC(N)=O)[C@@H](C)CC)NC(=O)[C@H](CCCCN)NC(=O)[C@H]([C@@H](C)CC)NC(=O)[C@H](CCCCN)NC1=O [compound 43] (H-GIFSKLAGCKIKCLLISGLKG-NH2; linker 9-13 via X1; N-terminus assumed)
IC50 [1]: > 200 µg/mL
IC50 [2]: > 200 µg/mL

CC[C@H](C)[C@H](NC(=O)CN)C(=O)N[C@@H](Cc1ccccc1)C(=O)N[C@@H](CO)C(=O)N[C@@H](CCCCN)C(=O)N[C@@H](CC(C)C)C(=O)N[C@H]1CSCC=CCSC[C@@H](C(=O)N[C@@H](CCCCN)C(=O)N[C@@H](CC(N)=O)C(=O)N[C@@H](CC(C)C)C(=O)N[C@@H](CC(C)C)C(=O)N[C@H](C(=O)N[C@@H](CO)C(=O)NCC(=O)N[C@@H](CC(C)C)C(=O)N[C@@H](CCCCN)C(=O)NCC(N)=O)[C@@H](C)CC)NC(=O)[C@H](CCCCN)NC(=O)[C@H](CCCCN)NC(=O)CNC1=O [compound 4] (H-GIFSKLCGKKCKNLLISGLKG-NH2; linker 7-11 via X1; N-terminus assumed)
IC50 [1]: 98 µg/mL (≈ 43.4 µM)
IC50 [2]: ~200 µg/mL (≈ 88.5 µM)

CC[C@H](C)[C@H](NC(=O)CN)C(=O)N[C@@H](Cc1ccccc1)C(=O)N[C@@H](CO)C(=O)N[C@@H](CCCCN)C(=O)N[C@@H](CC(C)C)C(=O)N[C@@H](C)C(=O)NCC(=O)N[C@@H](CCCCN)C(=O)N[C@@H](CCCCN)C(=O)N[C@H](C(=O)N[C@@H](CCCCN)C(=O)N[C@H]1CSCC=CCSC[C@@H](C(=O)NCC(=O)N[C@@H](CC(C)C)C(=O)N[C@@H](CCCCN)C(=O)NCC(N)=O)NC(=O)[C@H]([C@@H](C)CC)NC(=O)[C@H](CC(C)C)NC(=O)[C@H](CC(C)C)NC1=O)[C@@H](C)CC [compound 25] (H-GIFSKLAGKKIKCLLICGLKG-NH2; linker 13-17 via X1; N-terminus assumed)
IC50 [1]: 141 µg/mL (≈ 62.9 µM)
IC50 [2]: 200 µg/mL (≈ 89.2 µM)

CC[C@H](C)[C@H](NC(=O)CN)C(=O)N[C@@H](Cc1ccccc1)C(=O)N[C@@H](CO)C(=O)N[C@@H](CCCCN)C(=O)N[C@@H](CC(C)C)C(=O)N[C@@H](C)C(=O)NCC(=O)N[C@@H](CCCCN)C(=O)N[C@@H](CCCCN)C(=O)N[C@H](C(=O)N[C@@H](CCCCN)C(=O)N[C@@H](CC(N)=O)C(=O)N[C@@H](CC(C)C)C(=O)N[C@@H](CC(C)C)C(=O)N[C@H]1CSCC=CCSC[C@@H](C(=O)NCC(N)=O)NC(=O)[C@H](CC(C)C)NC(=O)CNC(=O)[C@H](CO)NC1=O)[C@@H](C)CC [compound 34] (H-GIFSKLAGKKIKNLLCSGLCG-NH2; linker 16-20 via X1; N-terminus assumed)
IC50 [1]: 119 µg/mL (≈ 54 µM)
IC50 [2]: ~200 µg/mL (≈ 90.8 µM)

CC[C@H](C)[C@H](NC(=O)CN)C(=O)N[C@@H](Cc1ccccc1)C(=O)N[C@H]1CSCc2ccc(cc2)CSC[C@@H](C(=O)N[C@@H](CCCCN)C(=O)N[C@@H](CCCCN)C(=O)N[C@H](C(=O)N[C@@H](CCCCN)C(=O)N[C@@H](CC(N)=O)C(=O)N[C@@H](CC(C)C)C(=O)N[C@@H](CC(C)C)C(=O)N[C@H](C(=O)N[C@@H](CO)C(=O)NCC(=O)N[C@@H](CC(C)C)C(=O)N[C@@H](CCCCN)C(=O)NCC(N)=O)[C@@H](C)CC)[C@@H](C)CC)NC(=O)[C@H](C)NC(=O)[C@H](CC(C)C)NC(=O)[C@H](CCCCN)NC1=O [compound 6] (H-GIFCKLACKKIKNLLISGLKG-NH2; linker 4-8 via pXylylene; N-terminus assumed)
IC50 [1]: 25 µg/mL (≈ 10.6 µM)
IC50 [2]: 15 µg/mL (≈ 6.39 µM)

CC[C@H](C)[C@H](NC(=O)CN)C(=O)N[C@@H](Cc1ccccc1)C(=O)N[C@@H](CO)C(=O)N[C@@H](CCCCN)C(=O)N[C@@H](CC(C)C)C(=O)N[C@H]1CSCc2cccc(c2)CSC[C@@H](C(=O)N[C@@H](CCCCN)C(=O)N[C@@H](CC(N)=O)C(=O)N[C@@H](CC(C)C)C(=O)N[C@@H](CC(C)C)C(=O)N[C@H](C(=O)N[C@@H](CO)C(=O)NCC(=O)N[C@@H](CC(C)C)C(=O)N[C@@H](CCCCN)C(=O)NCC(=O)N[C@@H](C)C(=O)NCC(=O)O)[C@@H](C)CC)NC(=O)[C@H](CCCCN)NC(=O)[C@H](CCCCN)NC(=O)CNC1=O [compound 95] (H-GIFSKLCGKKCKNLLISGLKGAG-OH; linker 7-11 via mXylylene; N-terminus assumed)
IC50 [1]: > 200 µg/mL
IC50 [2]: 167 µg/mL (≈ 68.5 µM)

CC[C@H](C)[C@H](NC(=O)CN)C(=O)N[C@@H](Cc1ccccc1)C(=O)N[C@H]1CSCc2cccc(c2)CSC[C@@H](C(=O)N[C@@H](CCCCN)C(=O)N[C@@H](CCCCN)C(=O)N[C@H](C(=O)N[C@@H](CCCCN)C(=O)N[C@@H](CC(N)=O)C(=O)N[C@@H](CC(C)C)C(=O)N[C@@H](CC(C)C)C(=O)N[C@H](C(=O)N[C@@H](CO)C(=O)NCC(=O)N[C@@H](CC(C)C)C(=O)N[C@@H](CCCCN)C(=O)NCC(N)=O)[C@@H](C)CC)[C@@H](C)CC)NC(=O)[C@H](C)NC(=O)[C@H](CC(C)C)NC(=O)[C@H](CCCCN)NC1=O [compound 5] (H-GIFCKLACKKIKNLLISGLKG-NH2; linker 4-8 via mXylylene; N-terminus assumed)
IC50 [1]: 23 µg/mL (≈ 9.79 µM)
IC50 [2]: 14 µg/mL (≈ 5.96 µM)

CC[C@H](C)[C@H](NC(=O)CN)C(=O)N[C@H]1CSCc2cccc(c2)CSC[C@@H](C(=O)NCC(=O)N[C@@H](CCCCN)C(=O)N[C@@H](CCCCN)C(=O)N[C@H](C(=O)N[C@@H](CCCCN)C(=O)N[C@@H](CC(N)=O)C(=O)N[C@@H](CC(C)C)C(=O)N[C@@H](CC(C)C)C(=O)N[C@H](C(=O)N[C@@H](CO)C(=O)NCC(=O)N[C@@H](CC(C)C)C(=O)N[C@@H](CCCCN)C(=O)NCC(N)=O)[C@@H](C)CC)[C@@H](C)CC)NC(=O)[C@H](CC(C)C)NC(=O)[C@H](CCCCN)NC(=O)[C@H](CO)NC1=O [compound 39] (H-GICSKLCGKKIKNLLISGLKG-NH2; linker 3-7 via mXylylene)
IC50 [1]: 103 µg/mL (≈ 45.3 µM)
IC50 [2]: 113 µg/mL (≈ 49.7 µM)
